The text below walks through data of patent US12312370B2, “Immunoproteasome inhibitors” (Principia Biopharma Inc., priority 2017, dated 2025).

For assay [1], the target named is constitutive proteasome β5c unit (Homo sapiens, UniProt P28074). The experiment in a line: Caliper-based proteasome enzymatic activity assay, β5c. The assay is classed as biochemical. The settings on record: human recombinant constitutive proteasome 0.3 nM, FAM-labeled peptide substrate 1 μM, rt 3 h; read-out: β5c subunit IC50.
Assay [2] concerns the target immunoproteasome LMP7/B5i subunit (Homo sapiens, UniProt P28062). The experiment in a line: Caliper-based proteasome enzymatic activity assay, LMP7. The settings on record: human recombinant immunoproteasome 0.3 nM, FAM-labeled peptide substrate 1 μM, rt 3 h; read-out: LMP7 subunit IC50. The assay is classed as biochemical.

Take `CC(C)(C=C(C#N)C(=O)N1CCCC[C@@H](OC(=O)N[C@@H](CC2=CCCC2)B(O)O)C1)N1CCOCC1` [Example 138, ((R)-1-(((((R)-1-(2-cyano-4-methyl-4-morpholinopent-2-enoyl)azepan-3-yl)oxy)carbonyl)amino)-2-(cyclopent-1-en-1-yl)ethyl)boronic acid]: the IC50 (in general, the concentration that gives 50% inhibition) is more than 5000 nM in assay [1] and 1.2 nM in assay [2].
For `CC(C)C=C(C#N)C(=O)N1CCC[C@@H]1COC[C@H](NCC(F)(F)F)C(=O)N[C@@H](Cc1ccccc1)B(O)O` [Example 23, (R)-1-((S)-3-(((R)-1-(2-cyano-4-methylpent-2-enoyl)pyrrolidin-2-yl)methoxy)-2-(2,2,2-trifluoroethylamino)propanamido)-2-phenylethylboronic acid], the figures for the IC50 in assay [1] and in assay [2] were 450 nM and 35 nM, respectively.
On to `CC(C)C=C(C#N)C(=O)NCCCC[C@H](NC(=O)[C@@H](NC(=O)C(C)C)[C@@H](C)O)C(=O)N[C@@H](Cc1ccccc1)B(O)O` [Example 10, ((R)-1-((S)-6-(2-cyano-4-methylpent-2-enamido)-2-((2S,3R)-3-hydroxy-2-isobutyramidobutanamido)hexanamido)-2-phenylethyl)boronic acid], for which the IC50 worked out at 14.8 nM in assay [1] and 6.6 nM in assay [2].
The like results for `C=CC(=O)N1C[C@H](OC(=O)N[C@@H](Cc2ccccc2)B(O)O)[C@@H](F)C1` [Example 110, ((R)-1-(((((3S,4S)-1-acryloyl-4-fluoropyrrolidin-3-yl)oxy)carbonyl)amino)-2-phenylethyl)boronic acid] were, in that order, 2840 nM and 78.3 nM.
The like results for `CC(C)(C=C(C#N)C(=O)N1CCO[C@@H](CC(=O)N[C@@H](Cc2ccccc2)B(O)O)C1)N1CCC(F)(F)C1` [Example 61, ((R)-1-(2-((S)-4-(2-cyano-4-(3,3-difluoropyrrolidin-1-yl)-4-methylpent-2-enoyl)morpholin-2-yl)acetamido)-2-phenylethyl)boronic acid] were, in that order, 186 nM and 11 nM.
On to `CC(C)(C=C(C#N)C(=O)N1CCCC[C@H](OC(=O)N[C@@H](Cc2ccccc2)B(O)O)C1)N1CCOCC1` (single isomer, unassigned) [Example 104], for which the IC50 in assay [1] is more than 5000 nM; in assay [2], 2.4 nM.
The like results for `CC(C)(C=C(C#N)C(=O)N1CCC[C@H](CC(=O)N[C@@H](Cc2ccccc2)B(O)O)C1)N1CCC(F)(F)C1` [Example 56, ((R)-1-(2-((R)-1-(2-cyano-4-(3,3-difluoropyrrolidin-1-yl)-4-methylpent-2-enoyl)piperidin-3-yl)acetamido)-2-phenylethyl)boronic acid] were, in that order, 255 nM and 9.9 nM.
The like results for `CC(C)C=C(C#N)C(=O)NCCCC[C@H](NC(=O)c1cc(Cl)ccc1Cl)C(=O)N[C@@H](CC(C)C)B(O)O` [Example 3, ((R)-1-((S)-6-(2-cyano-4-methylpent-2-enamido)-2-(2,5-dichlorobenzamido)hexanamido)-3-methylbutyl)boronic acid] were, in that order, 8.5 nM and 29.6 nM.
For `CC(C)(C=C(C#N)C(=O)N1CCC[C@@H](CC(=O)N[C@@H](Cc2ccccc2)B(O)O)C1)N1CCC(F)(F)C1` [Example 59, ((R)-1-(2-((S)-1-(2-cyano-4-(3,3-difluoropyrrolidin-1-yl)-4-methylpent-2-enoyl)piperidin-3-yl)acetamido)-2-phenylethyl)boronic acid], the IC50 in assay [1] is 163 nM; in assay [2], 21 nM.
The like results for `CC(C)C=C(C#N)C(=O)N1CCC[C@@H]1COC[C@H](NC(=O)c1cc(Cl)ccc1Cl)C(=O)N[C@@H](Cc1ccccc1)[B-]12OC(=O)C[N+]1(C)CC(=O)O2` (stereo partly drawn) [Example 19, 8-((R)-1-((S)-3-(((R)-1-(2-cyano-4-methylpent-2-enoyl)pyrrolidin-2-yl)methoxy)-2-(2,5-dichlorobenzamido)propanamido)-2-phenylethyl)-4-methyl-2,6-dioxohexahydro-[1,3,2]oxazaborolo[2,3-b][1,3,2]oxazaborol-4-ium-8-uide] were, in that order, 15.6 nM and 9.6 nM.
Take `CC(C)(C=C(C#N)C(=O)N1CCC[C@@H](NC(=O)N[C@@H](Cc2ccccc2)B(O)O)C1)N1CCC(F)(F)C1` [Example 101, ((R)-1-(3-((R)-1-(2-cyano-4-(3,3-difluoropyrrolidin-1-yl)-4-methylpent-2-enoyl)piperidin-3-yl)ureido)-2-phenylethyl)boronic acid]: the IC50 in assay [1] was found to be 3920 nM; in assay [2] it was 145 nM.
As to `C=C(F)C(=O)N1CCC[C@H](OC(=O)N[C@@H](Cc2ccc(F)cc2)B(O)O)C1` [Example 74, ((R)-1-(((((S)-1-(2-fluoroacryloyl)piperidin-3-yl)oxy)carbonyl)amino)-2-(4-fluorophenyl)ethyl)boronic acid], the IC50 in assay [1] stood at 2100 nM; in assay [2] it was 149 nM.
The like results for `C=CC(=O)N1C[C@@H](F)[C@H](OC(=O)N[C@@H](Cc2ccc(F)cc2)B(O)O)C1` [Example 135, ((R)-1-(((((3R,4R)-1-acryloyl-4-fluoropyrrolidin-3-yl)oxy)carbonyl)amino)-2-(4-fluorophenyl)ethyl)boronic acid] were, in that order, 3320 nM and 18.2 nM.
For `CC(C)(C=C(C#N)C(=O)N1CCC[C@](C)(OC(=O)N[C@@H](Cc2ccccc2)B(O)O)C1)N1CCC(F)(F)C1` (single isomer, unassigned) [Example 92], the results for the IC50 in assay [1] and in assay [2] were more than 5000 nM and 42.2 nM, respectively.
The like results for `C[C@@H]1CN(C(C)(C)C=C(C#N)C(=O)N2CCCC[C@@H](OC(=O)N[C@@H](Cc3ccccc3)B(O)O)C2)C[C@@H](C)O1` [Example 129] were, in that order, 734 nM and 2.7 nM.
The like results for `CC(C)(C=C(C#N)C(=O)N1C[C@H](F)[C@H](OC(=O)N[C@@H](Cc2ccccc2)B(O)O)C1)N1CCC(F)(F)C1` [Example 111, ((R)-1-(((((3R,4S)-1-(2-cyano-4-(3,3-difluoropyrrolidin-1-yl)-4-methylpent-2-enoyl)-4-fluoropyrrolidin-3-yl)oxy)carbonyl)amino)-2-phenylethyl)boronic acid] were, in that order, 140 nM and 1.9 nM.
`CC(C)(C=C(C#N)C(=O)N1CCC[C@@H](OC(=O)N[C@@H](Cc2ccccc2)B(O)O)C1)N1CCC(F)(F)C1` [Example 55, ((R)-1-(((((R)-1-(2-cyano-4-(3,3-difluoropyrrolidin-1-yl)-4-methylpent-2-enoyl)piperidin-3-yl)oxy)carbonyl)amino)-2-phenylethyl)boronic acid]: the IC50 was 3880 nM in assay [1] and 5.1 nM in assay [2].
The like results for `C=CC(=O)N1C2CCC1(COC(=O)N[C@@H](Cc1coc3ccccc13)B(O)O)CC2` [Example 63, (R)-(1-((((7-acryloyl-7-azabicyclo[2.2.1]heptan-1-yl)methoxy)carbonyl)amino)-2-(benzofuran-3-yl)ethyl)boronic acid] were, in that order, 465 nM and 2 nM.
The like results for `CC(C)(C=C(C#N)C(=O)N1CC[C@@H](OC(=O)N[C@@H](Cc2ccccc2)B(O)O)C1)N1CCC(F)(F)C1` [Example 90, ((R)-1-(((((R)-1-(2-cyano-4-(3,3-difluoropyrrolidin-1-yl)-4-methylpent-2-enoyl)pyrrolidin-3-yl)oxy)carbonyl)amino)-2-phenylethyl)boronic acid] were, in that order, 1590 nM and 3.2 nM.
With `CC(C)(C=C(C#N)C(=O)N1C2CCC1(COC(=O)N[C@@H](Cc1ccccc1)B(O)O)CC2)N1CCOCC1` [Example 81], the IC50 in assay [1] was 2220 nM; in assay [2], 1.8 nM.
The like results for `CC(C)(C=C(C#N)C(=O)N1CCC[C@H](OC(=O)N[C@@H](CC2=CCCC2)B(O)O)C1)N1CCC(F)(F)C1` [Example 117, ((R)-1-(((((S)-1-(2-cyano-4-(3,3-difluoropyrrolidin-1-yl)-4-methylpent-2-enoyl)piperidin-3-yl)oxy)carbonyl)amino)-2-(cyclopent-1-en-1-yl)ethyl)boronic acid] were, in that order, more than 5000 nM and 4.3 nM.
The like results for `CC1(C)CCN(C(C)(C)C=C(C#N)C(=O)N2CCC[C@H](OC(=O)N[C@@H](Cc3ccc(C(F)(F)F)cc3)B(O)O)C2)C1` [Example 69, ((R)-1-(((((S)-1-(2-cyano-4-(3,3-dimethylpyrrolidin-1-yl)-4-methylpent-2-enoyl)piperidin-3-yl)oxy)carbonyl)amino)-2-(4-(trifluoromethyl)phenyl)ethyl)boronic acid] were, in that order, 3370 nM and 26.1 nM.
The like results for `C[C@@H]1CN(C(C)(C)C=C(C#N)C(=O)N2C3CCC2(COC(=O)N[C@@H](Cc2ccccc2)B(O)O)CC3)CCO1` [Example 118, ((R)-1-((((7-(2-cyano-4-methyl-4-((R)-2-methylmorpholino)pent-2-enoyl)-7-azabicyclo[2.2.1]heptan-1-yl)methoxy)carbonyl)amino)-2-phenylethyl)boronic acid] were, in that order, 1150 nM and 1.9 nM.
Regarding `CC(C)(C=C(C#N)C(=O)N1C2CCC1(COC(=O)N[C@@H](Cc1ccc(F)cc1)B(O)O)CC2)N1CCOCC1` [Example 82, (R)-(1-((((7-(2-cyano-4-methyl-4-morpholinopent-2-enoyl)-7-azabicyclo[2.2.1]heptan-1-yl)methoxy)carbonyl)amino)-2-(4-fluorophenyl)ethyl)boronic acid], the IC50 in assay [1] was 1380 nM; in assay [2], 1.7 nM.
The like results for `COC(=O)N1CCN(C(C)(C)C=C(C#N)C(=O)N2CCCC[C@@H](OC(=O)N[C@@H](Cc3ccccc3)B(O)O)C2)CC1` [Example 107, ((R)-1-(((((R)-1-(2-cyano-4-(4-(methoxycarbonyl)piperazin-1-yl)-4-methylpent-2-enoyl)azepan-3-yl)oxy)carbonyl)amino)-2-phenylethyl)boronic acid] were, in that order, 1070 nM and 1 nM.
